This note sets out measurements from patent US6462023B1, “Cytostatic agents” (British Biotech Pharmaceuticals, Ltd., priority 1988, dated 2002).

One assay concerns melanoma (RPMI-7951). Description: cell proliferation assay ([methyl-3H] thymidine incorporation), RPMI-7951. The assay is classed as cell-based, human. The following applies: Table 1; final concentration 6 μM; 72 hours in culture, 3 hours pulse; n=6. Here is the method: (§1) Two human cell lines namely a histiocytic lymphoma (U937) and a melanoma (RPMI-7951) were seeded into 30 mm^2 tissue culture wells, in the appropriate culture medium supplemented with 10% fetal calf serum at a density of 250 cells/mm^2. Six hours later the test compounds were added in the same culture medium to the cells to give a final concentration of 6 μM. Control wells contained cells supplemented with the same culture medium containing the equivalent amount of drug vehicle, which in this case was DMSO at a final concentration of 0.08%. After 72 hours in culture the cells were pulsed for 3 hours with [methyl-^3[H] Thymidine] (2 μCi/ml) and then harvested onto filter mats and DNA associated radioactivity counted. Results are expressed as percentage of control ^3[H] Thymidine incorporation (n=6±1 stdv).

Assay [1] deals with histiocytic lymphoma (U937). The assay can be described thus: cell proliferation assay ([methyl-3H] thymidine incorporation), U937. The conditions noted are these: Homo sapiens, U-937, 72 hours in culture, n=6, read-out: U937: percentage of control 3[H] Thymidine incorporation. The assay is classed as cell-based, human. On the procedure:
as §1
Further examples were tested in the U937 assay described above at 6 μM and the results, expressed as percentage of control ^3[H] Thymidine incorporation (n=6±1 stdv), are set out in the following Table 2.
as §1, with “A” for “Two”, “line,” for “lines”, “(U937), was” for “(U937) and a melanoma (RPMI-7951) were”, “30MM^2” for “30 mm^2”, “cellS/MM^2.” for “cells/mm^2.”, “were” for “are”

[2] abbreviates: Table 1, final concentration 6 μM, 3 hours pulse.

Structures are written as SMILES. Like-named read-outs stand apart in the source and are kept apart here.

Take `C=CC[C@H](C(=O)NO)[C@@H](CC(C)C)C(=O)N[C@@H](Cc1ccccc1)C(=O)OC` [Example 1, 2S-(3S-Hydroxycarbamoyl-2R-isobutyl-hex-5-enoylamino)-3-phenylpropionic acid methyl ester]: the “RPMI: percentage of control 3[H] Thymidine incorporation” value (shortened to “RPMI: percentage”) in the assay with melanoma (RPMI-7951) was 40 percentage of control. In addition, the activity at 6 µM in assay [1] (setting [2]) worked out at 7%.

As to `C=CC[C@H](C(=O)NO)[C@@H](CC(C)C)C(=O)N[C@@H](Cc1ccccc1)C(=O)OCC` [Example 2, 2S-(3S-Hydroxycarbamoyl-2R-isobutyl-hex-5-enoylamino)-3-phenylpropionic acid ethyl ester], the “RPMI: percentage” value in the assay with melanoma (RPMI-7951) is recorded as 37 percentage of control. For the same compound, the activity at 6 µM in assay [1] (setting [2]) was 7%.

Consider `C=CC[C@H](C(=O)NO)[C@@H](CC(C)C)C(=O)N[C@@H](Cc1ccccc1)C(=O)OC(C)C` [Example 3, 2S-(3S-Hydroxycarbamoyl-2R-isobutyl-hex-5-enoylamino)-3-phenylpropionic acid isopropyl ester], for which, in the assay with melanoma (RPMI-7951), the “RPMI: percentage” value is listed as 27 percentage of control. Also, the activity at 6 µM in assay [1] (setting [2]) worked out at 2.5%.

Take `COC(=O)[C@H](Cc1ccccc1)NC(=O)[C@H](CC(C)C)[C@H](C)C(=O)NO` [Example 5, 3R-(2-Phenyl-1S-methylcarboxy-ethylcarbamoyl)-2S, 5-dimethylhexanohydroxamic acid]: the “RPMI: percentage” value in the assay on melanoma (RPMI-7951) is recorded as 82 percentage of control. For the same compound, the activity at 6 µM in assay [1] (setting [2]) came to 19%.

Regarding `C=CC[C@H](C(=O)NO)[C@@H](CC(C)C)C(=O)N[C@@H](CC1CCCCC1)C(=O)OC1CCCC1` [Example 28, 3-Cyclohexyl-2S-(3S-hydroxycarbamoyl-2R-isobutyl-hex-5-enoylamino)-propionic acid cyclopentyl ester], in assay [1] (Table 2, 6 μM), the activity at 6 µM was found to be 0%.

For `C=CC[C@H](C(=O)NO)[C@@H](CC(C)C)C(=O)N[C@@H](Cc1ccccc1)C(=O)OC1CCN(C)CC1` [Example 29, 2S-(3S-Hydroxycarbamoyl-2R-isobutyl-hex-5-enoylamino)-3-phenylpropionic acid 1-methyl-piperidin-4-yl ester], the activity at 6 µM in assay [1] (Table 2, 6 μM) stood at 49%.

Regarding `C=CC[C@H](C(=O)NO)[C@@H](CC(C)C)C(=O)N[C@@H](Cc1ccccc1)C(=O)OC(CC)CC` [Example 30, 2S-(3S-Hydroxycarbamoyl-2R-isobutyl-hex-5-enoylamino)-3-phenylpropionic acid 1-ethyl-propyl ester], the activity at 6 µM in assay [1] (Table 2, 6 μM) was 6%.

As to `C=CC[C@H](C(=O)NO)[C@@H](CC(C)C)C(=O)N[C@@H](Cc1ccccc1)C(=O)O[C@@H](C)CCC` [Example 31, 2S-(3S-Hydroxycarbamoyl-2R-isobutyl-hex-5-enoylamino)-3-phenylpropionic acid 1S-methyl-butyl ester], in assay [1] (Table 2, 6 μM), the activity at 6 µM stood at 7%.

With `C=CC[C@H](C(=O)NO)[C@@H](CC(C)C)C(=O)N[C@@H](Cc1ccccc1)C(=O)OC1CCCCC1` [Example 32, 2S-(3S-Hydroxycarbamoyl-2R-isobutyl-hex-5-enoylamino)-3-phenylpropionic acid cyclohexyl ester], in assay [1] (Table 2, 6 μM), the activity at 6 µM is 0%.

As for `C=CC[C@H](C(=O)NO)[C@@H](CC(C)C)C(=O)N[C@@H](Cc1ccccc1)C(=O)O[C@H](C)CCC` [Example 34, 2S-(3S-Hydroxycarbamoyl-2R-isobutyl-hex-5-enoylamino)-3-phenylpropionic acid 1R-methyl-butyl ester], in assay [1] (Table 2, 6 μM), the activity at 6 µM was determined as 3%.

With `C=CC[C@H](C(=O)NO)[C@@H](CC(C)C)C(=O)N[C@@H](Cc1ccccc1)C(=O)OC1CCOC1` (stereo partly drawn) [Example 35, 2S-(3S-Hydroxycarbamoyl-2R-isobutyl-hex-5-enoylamino)-3-phenylpropionic acid tetrahydro-furan-3(R, S)-yl ester], the activity at 6 µM in assay [1] (Table 2, 6 μM) came to 14%.

`C=CC[C@H](C(=O)NO)[C@@H](CC(C)C)C(=O)N[C@H](C(=O)OC1CCCC1)C(C)(C)C` [Example 36, 2S-(3S-Hydroxycarbamoyl-2R-isobutyl-hex-5-enoylamino)-3,3-dimethyl-butyric acid cyclopentyl ester]: the activity at 6 µM in assay [1] (Table 2, 6 μM) was 51%.

Consider `CC(C)C[C@@H](C(=O)N[C@@H](Cc1ccccc1)C(=O)OC1CCCC1)[C@@H](C(=O)NO)C1CCCC1` [Example 37, 2S-[2R-(1S-Cyclopentyl-hydroxycarbamoyl-methyl)-4-methyl-pentanoylamino]-3-phenyl-propionic acid cyclopentyl ester], for which, in assay [1] (Table 2, 6 μM), the activity at 6 µM was 0%.

For the compound `C#CC[C@@H](C(=O)N[C@@H](Cc1ccccc1)C(=O)OC1CCCC1)[C@H](O)C(=O)NO` [Example 38, 2S-[2R-(1S-Hydroxy-hydroxycarbamoyl-methyl)-pent-4-ynoylamino]-3-phenylpropionic acid cyclopentyl ester], the activity at 6 µM in assay [1] (Table 2, 6 μM) was 37%.

Consider `C=CC[C@H](C(=O)NO)[C@@H](CC(C)C)C(=O)N[C@@H](Cc1cccnc1)C(=O)OC1CCCC1` [Example 39, 2S-(3S-Hydroxycarbamoyl-2R-isobutyl-hex-5-enoylamino)-3-pyridin-3-yl-propionic acid cyclopentyl ester], for which the activity at 6 µM in assay [1] (Table 2, 6 μM) came out at 26%.

With `C=CC[C@H](C(=O)NO)[C@@H](CC(C)C)C(=O)N[C@@H](COC(C)(C)C)C(=O)OC1CCCC1` [Example 40, 3-tert-Butoxy-2S-(3S-hydroxcarbamoyl-2R-isobutyl-hex-5-enoylamino)-propionic acid cyclopentyl ester], the activity at 6 µM in assay [1] (Table 2, 6 μM) is 0%.

With `C=CC[C@H](C(=O)NO)[C@@H](CC(C)C)C(=O)N[C@H](C(=O)OC1CCCC1)c1ccccc1` [Example 41, 2S-(3S-Hydroxycarbamoyl-2R-isobutyl-hex-5-enoylamino)-2-phenylethanoic acid cylcopentyl ester], the activity at 6 µM in assay [1] (Table 2, 6 μM) was 0%.

Turning to `O=C(OC1CCCC1)[C@H](Cc1ccccc1)NC(=O)[C@H](CC#Cc1ccccc1Cl)[C@H](O)C(=O)NO` [Example 42, 2S-[5-(2-Chlorophenyl)-2R-(1S-hydroxy-hydroxycarbamoyl-methyl)-pent-4-ynoylamino]-3-phenylpropionic acid cyclopentyl ester], in assay [1] (Table 2, 6 μM), the activity at 6 µM stood at 0%.
